According to US8715761B2, “Flavor molecules” (Givaudan S.A., priority 2008, dated 2014):

Tests used:
Format in all cases: in vivo
[1] = Isointensity (R-index) of 20 ppm Compound 13 in water, alone and with 7% sucrose, versus sucrose solutions
Text: The sweet enhancement effect of Compound 13 is illustrated in the following tables: the isointensity of Compound 13 at 20 ppm equals 0.5% sucrose. The isointensity of 7% sucrose with 20 ppm 1-(2-hydroxyphenyl)-3-(pyridin-4-yl)propan-1-one is 8% sucrose. Therefore, the perceived enhancement of sucrose is about 0.5% sucrose (8%-7.5%). This sweet enhancement effect is also observed with consumable products containing other natural and artificial sweeteners, for example, carbohydrates; sucrose, lactose, D-glucose, D-tagatose, D-fructose whether naturally- or synthetically-produced, erythritol, threitol, arabitol, ribitol, xylitol, sorbitol, mannitol, maltitol, isomaltitol, dulcitol, and lactitol, thaumatin, glycin, D-phenylalanine, D-tryptophan, sodium cyclamate, acesulfam K, neohesperidine dihydrochalcone, sodium salt of saccharin, aspartame, superaspartame, neotam, alitam, sucralose, and stevioside.

[2] = Taste testing in water by a panel of experienced tasters
Text: The taste testing was made by a panel of experienced tasters.

[3] = Flavorist evaluation of how Compound 13 modifies a flavor in water and in application
Text: Evaluation Data on the Compound of Example 13, showing how it Modifies a Flavor in Water and in Application.
Strawberry A=candy strawberry. Strawberry B=green strawberry. Strawberry C=floral strawberry. Strawberry D=fruity strawberry.

[4] = Sweet isointensity against sugar solutions by a testing panel
Protocol: The sweet isointensity was tested against a variety of sugar solutions by a testing panel.

[5] = Sweetness in plain non-fat yoghurt by a trained panel; conditions: 5% sugar and 25 ppm of the compound in plain non-fat yoghurt
Protocol: 5% sugar and 25 ppm of the compound were added to plain non-fat yoghurt. A trained panel compared this to a series of plain non-fat yoghurts to which 5%, 6% 7% and 8% sugar had been added.

[6] = 7% sucrose + 20 ppm Cmpd 13 in water vs. 7% sucrose
[7] = 7% sucrose + 20 ppm Cmpd 13 in water vs. 8% sucrose
[8] = 7% sucrose + 20 ppm Cmpd 13 in water vs. 9% sucrose
[9] = 7% sucrose + 20 ppm Cmpd 13 in water vs. 10% sucrose
[10] = 20 ppm Compound 13 in water vs. 0.5% sucrose
[11] = 20 ppm Compound 13 in water vs. 1% sucrose

In the case of `O=C(CCc1ccncc1)c1ccccc1O` [Example 13, 1-(2-hydroxyphenyl)-3-(pyridin-4-yl)propan-1-one], the R-index [1, 6] is reported as 66%, the sample sweetness [1, 6] is reported as “sweeter” and the R-index [1, 7] is reported as 43%. For the same compound, the sample sweetness [1, 7] was “isosweet”, the R-index [1, 8] was 8% and the sample sweetness [1, 8] was “less”. For the same compound, the R-index [1, 9] was 4%, the sample sweetness [1, 9] was “less” and the isointensity ([1]; 7% sucrose with 20 ppm compound) was 8 % sucrose. The R-index [1, 10] was 61%, the sample sweetness [1, 10] was “isosweet” and the R-index [1, 11] was 14%. For the same compound, the sample sweetness [1, 11] was “less sweet”, the “perceived enhancement of sucrose” value ([1]; 20 ppm in 7% sucrose (8%-7.5%)) was “about 0.5 % sucrose” and the isointensity ([1]; 20 ppm in water) was 0.5 % sucrose. For the same compound, the “Taste results in water” value ([2]; 0.01 ppm to 0.1 ppm) was “nothing”, the “Taste results in water” value ([2]; 1 ppm) was “weak sweet” and the “Taste results in water” value ([2]; 10 ppm) was “sweet”. For the same compound, the “Taste results in water” value ([2]; 100 ppm) was “very sweet, licorice linger”, the “Flavorist Evaluation” value ([3]; 2% milk, 20 ppm compound 13) was “Slight change in profile, Sweeter than control” and the “Flavorist Evaluation” value ([3]; Cereal, 50% reduced sugar + 20 ppm of compound 13) was “Not lingering, more brown notes, roasted,”. For the same compound, the “Flavorist Evaluation” value ([3]; Cereal, 50% reduced sugar + 20 ppm of compound 13 + 100 ppm of Sweet Flavor B) was “Nice, works well, more close to sugar taste,”, the “Flavorist Evaluation” value ([3]; Cereal, 50% reduced sugar + 50 ppm of compound 13) was “Sweeter than 50% reduced control, better” and the “Flavorist Evaluation” value ([3]; Strawberry yoghurt, 3% fat, 7% sugar, Strawberry flavour D @ 0.1% + 10 ppm of compound 13) was “Fruity, slightly fermented, caramellic, green”. For the same compound, the “Flavorist Evaluation” value ([3]; Strawberry yoghurt, 3% fat, 7% sugar, Strawberry flavour D @ 0.1% + 25 ppm of compound 13) was “Fruity, sweet, fermented, caramellic, apple like”, the “Flavorist Evaluation” value ([3]; Strawberry yoghurt, 3% fat, 7% sugar, Strawberry flavour D @ 0.1% + 50 ppm of compound 13) was “Fermented, sweet, brown, caramellic, overripe” and the “Flavorist Evaluation” value ([3]; Vanilla ice cream, 8% vegetable fat, Vanilla flavour A @ 0.5% + 10 ppm of compound 13) was “creamy, vanillic, sweet, slightly cooked”. For the same compound, the “Flavorist Evaluation” value ([3]; Vanilla ice cream, 8% vegetable fat, Vanilla flavour A @ 0.5% + 15 ppm of compound 13) was “creamy, sweet, vanillic, lingering sweet vanilla”, the “Flavorist Evaluation” value ([3]; Vanilla ice cream, 8% vegetable fat, Vanilla flavour A @ 0.5% + 30 ppm of compound 13) was “sweet, vanillic, lingering sweet vanilla” and the “Flavorist Evaluation” value ([3]; Water, 7% sugar + 20 ppm of compound 13) was “Sweeter than 7% sugar, little floral, fuller, slight”. The “Flavorist Evaluation” value ([3]; Water, 7% sugar + 50 ppm of compound 13) was “Sweeter than above, very close to 9% sugar-”, the “Flavorist Evaluation” value ([3]; Water, 7% sugar with 0.105% Citric acid + 20 ppm of compound 13) was “Sweeter than control, not effecting acidity,” and the “Flavorist Evaluation” value ([3]; Water, 7% sugar with 0.105% Citric acid + 50 ppm of compound 13) was “Sweeter than sample at 20 ppm, musty, clean,”. The “Flavorist Evaluation” value ([3]; Water, Strawberry A @ 0.2% + 20 ppm compound 13) was “Green character remains but softer, sweeter”, the “Flavorist Evaluation” value ([3]; Water, Strawberry B @ 0.2% + 20 ppm compound 13) was “Sweeter, less green, jammer, maltol-like note,” and the “Flavorist Evaluation” value ([3]; Water, Strawberry C @ 0.2% + 20 ppm compound 13) was “Less green, less floral, burnt sugar caramel”. For the same compound, the “Flavorist Evaluation” value ([3]; Water, Sweetness Improver Flavor A + 5 ppm compound 13 in 25% sugar reduction Grape Type Drink) was “Sweet grape character with the acidic middle”.

In the case of `Cc1csc(CCC(=O)c2ccccc2O)n1` [Example 11, 1-(2-hydroxyphenyl)-3-(4-methylthiazol-2-yl)propan-1-one], the “Taste results in water” value ([2]; 0.01 ppm) is reported as “nothing”, the “Taste results in water” value ([2]; 0.1 ppm) is reported as “very weak bitter” and the “Taste results in water” value ([2]; 1 ppm) is reported as “astringent, bitter”. For the same compound, the “Taste results in water” value ([2]; 10 ppm) was “bitter, astringent” and the “Taste results in water” value ([2]; 100 ppm) was “bitter, terpen, weak sweet”.

In the case of `COc1cccc(CCC(=O)c2ccccc2O)n1` [Example 2, 1-(2-hydroxyphenyl)-3-(6-methoxypyridin-2-yl) propan-1-one], the “Taste results in water” value ([2]; 10 ppm) is reported as “Slightly sweet/bitter” and the “Taste results in water” value ([2]; 100 ppm) is reported as “sweet, bitter, slight fruity”.

With `O=C(CCc1ccccn1)c1ccccc1O` [Example 12, 1-(2-hydroxyphenyl)-3-(pyridin-2-yl)propan-1-one] the “Taste results in water” value ([2]; 1 ppm) was “umami”, the “Taste results in water” value ([2]; 10 ppm) was “high umami like taste” and the “Taste results in water” value ([2]; 100 ppm) was “strong umami, slightly bitter”.

With `O=C(CCc1ccco1)c1ccccc1O` [Example 8, 3-(furan-2-yl)-1-(2-hydroxyphenyl)propan-1-one] the “Taste results in water” value ([2]; 0.01 ppm) was “nothing”, the “Taste results in water” value ([2]; 0.1 ppm) was “soap, delayed sweet” and the “Taste results in water” value ([2]; 1 ppm) was “soap, umami, bitter”. For the same compound, the “Taste results in water” value ([2]; 10 ppm) was “licorice aroma, soapy, weak sweet, bitter, vegetable, terpen” and the “Taste results in water” value ([2]; 100 ppm) was “bitter, licorice aroma, weak sweet, celery, umami, brothy”.

With `COc1ncccc1CCC(=O)c1ccccc1O` [Example 3, 1-(2-hydroxyphenyl)-3-(2-methoxypyridin-3-yl)propan-1-one] the “Taste results in water” value ([2]; 1 ppm) was “Very weak sweet”, the “Taste results in water” value ([2]; 10 ppm) was “Very weak sweet” and the “Taste results in water” value ([2]; 50 ppm) was “bitter, weakly sweet and burning”.

In the case of `COc1ccc(CCC(=O)c2ccc(O)cc2O)cn1` [Example 18], the “Taste results in water” value ([2]; 100 ppm) is reported as 100 ppm, sweet.

For `O=C(CCc1cccnc1)c1ccccc1O` [Example 7, 1-(2-hydroxyphenyl)-3-(pyridin-3-yl)propan-1-one], the “Taste results in water” value ([2]; 0.1 ppm) was “nothing”, the “Taste results in water” value ([2]; 1 ppm) was “very weak sweet, astringent” and the “Taste results in water” value ([2]; 10 ppm) was “waxy, delayed sweet, astringent”. The “Taste results in water” value ([2]; 100 ppm) was “weak sweet, chemical, bitter”.

In the case of `O=C(CCc1nccs1)c1ccccc1O` [Example 15, 1-(2-hydroxyphenyl)-3-(thiazol-2-yl)propan-1-one], the “Taste results in water” value ([2]; 0.01 ppm) is reported as “delayed umami aftertaste”, the “Taste results in water” value ([2]; 0.1 ppm) is reported as “delayed umami aftertaste” and the “Taste results in water” value ([2]; 1 ppm) is reported as “weak plastic, soap, umami, astringent”. The “Taste results in water” value ([2]; 10 ppm) was “astringent. strong umami, weak soap, slight bitter” and the “Taste results in water” value ([2]; 100 ppm) was “bitter. umami”.

In the case of `Cl.O=C(CCc1ccncc1)c1ccccc1O` [Example 21, 4-(3-(2-hydroxyphenyl)-3-oxopropyl)pyridinium chloride], the “sweet isointensity (isosweet to)” value ([4]; 30 ppm) is reported as 0.75 % sucrose, the sweetness equivalent ([4]; 30 ppm of the compound + 7% sucrose) is reported as 8.5 % sucrose and the “sweet isointensity (isosweet to)” value ([4]; 35 ppm) is reported as 1.0 % sucrose. For the same compound, the “sweet isointensity (isosweet to)” value ([4]; 40 ppm) was 1.25 % sucrose and the “isosweet to” value [5] was 6.5 % sugar.

For `Cc1ncsc1CCC(=O)c1ccccc1O` [Example 4, 1-(2-hydroxyphenyl)-3-(4-methylthiazol-5-yl)propan-1-one], the “Taste results in water” value ([2]; 0.1 to 1 ppm) was “petroleum, sulfur”, the “Taste results in water” value ([2]; 10 ppm) was “very weak sweet, brothy” and the “Taste results in water” value ([2]; 100 ppm) was “sweet, brothy, gassy, bitter, linger”.

With `Cc1cc(CCC(=O)c2ccccc2O)no1` [Example 6, 1-(2-hydroxyphenyl)-3-(5-methylisoxazol-3-yl)propan-1-one] the “Taste results in water” value ([2]; 0.1 ppm) was “slightly bitter”, the “Taste results in water” value ([2]; 1 ppm) was “slightly bitter, weakly sweet” and the “Taste results in water” value ([2]; 10 ppm) was “brothy, umami, soapy, irritating, garlic”. For the same compound, the “Taste results in water” value ([2]; 100 ppm) was “umami, bitter, soapy, garlic”.

In the case of `COc1ccc(CCC(=O)c2ccccc2O)cn1` [Example 1, 1-(2-hydroxyphenyl)-3-(6-methoxypyridin-3-yl)propan-1-one], the “Taste results in water” value ([2]; 5 ppm) is reported as “very weak sweet”, the “Taste results in water” value ([2]; 20 ppm) is reported as “weakly sweet” and the “Taste results in water” value ([2]; 100 ppm) is reported as “very strong sweet, weak bitter taste”.
